Data on 4 compounds can be found in patent US10098841B2, “Method of inducing a phase transition of a bilayer membrane vesicle” (Japan Science and Technology Agency, priority 2005, dated 2018).

Each structure is given as a SMILES string. Values after ≈ are worked out from the molar mass of the structure shown. Values joined by “and” are separate entries in the source; they are usually repeats but may differ in a detail not shown here. Equal values may be shown once.

The solubility is the dissolved amount per volume that the medium holds.

The nature of data set [1]: Change in particle size accompanying SUV fusion (DLS). The conditions noted are these: for Z average (average diameter): CDMT 50 equivalents; for number of SUVs fused, from change in particle size: about 3 hours. The procedure: SUV dispersions with the compositions shown in Table 6 were prepared in accordance with the SUV preparation method described in Example 6.
The prepared SUV dispersions were filtered through a 0.45-μm pore size filter and each was divided into two 2 mL samples, one of which was supplied with 21.7 μL (50 equivalents) of CDMT (300 mM in methanol) and the other supplied with 21.7 μL of methanol as a control experiment, and allowed to stand at room temperature. The particle size after three hours was measured by DLS.

Data set [2] can be described thus: SUV membrane fusion by fluorescence dilution method. The conditions noted are these: CDMT 25 or 50 equivalents; SUV with and without fluorescent agent. On the procedure:
An SUV dispersion with a fluorescent agent and an SUV dispersion without a fluorescent agent, of the compositions shown in Table 5 were prepared according to the SUV preparation method described in Example 6.
First, 0.2 mL of the prepared SUV dispersion with a fluorescent agent and 1.8 mL of the SUV dispersion without a fluorescent agent were mixed at room temperature. Three samples were prepared for each SUV. To two of these samples 10.8 μL (25 equivalents) or 21.7 μL (50 equivalents) of CDMT (300 mM in methanol) was added respectively, and allowed to stand at room temperature. As a control experiment, 21.7 μL of methanol was added to the remaining sample, and also allowed to stand, and then the fluorescence was measured at a given time interval.
Unlike the mixing method of Example 7, in the case of the fluorescence dilution method of Example 8, the F value becomes smaller as fusion proceeds. […] It should be noted that in the graph of FIG. 5, it appears as if at initial state there is a difference between the control sample and the samples to which CDMT has been added.

Data set [3] can be described thus: Membrane fusion experiment using SUV (F value). The conditions noted are these: SUV with C16-tertiary amine. On the procedure: Sodium laurate (45.0 mM in methanol, 5.8 μL), the dihydric alcohol 1B (38.5 mM in chloroform, 6.8 μL), C16-tertiary amine (3.05 mM in chloroform, 17.0 μL), nonreduced egg yolk lecithin (13.0 mM in chloroform, 19.0 μL), and a fluorescent agent (for NBD-PE: 1.23 mM in chloroform, 10.6 μL; for Rh-PE: 4.19 mM in chloroform, 3.1 μL) were placed into a 20-mL eggplant-shaped flask, and the solvent was evaporated under reduced pressure using a rotary evaporator. The thin film formed on the inner well of the flask was further dried under reduced pressure using a vacuum pump (room temperature, 0.5 hours). Then, 4 mL of phosphate buffer (5 mM NaH2PO4/Na2HPO4, 0.15 M NaCl, pH 8.5) was added thereto, and ultrasonic waves were applied for 30 seconds using a bath-type ultrasonic wave generation device. Next, the mixture was stirred and shaken for 10 minutes with a vortex mixer at 100% strength. […]
Using the SUV dispersion containing NBD-PE and Rh-PE obtained in Example 6, the change in fluorescence over time was measured in the same way as in the membrane fusion experiment with MLV of Example 3. The F value was calculated from the intensity of the fluorescence peaks to evaluate SUV fusion.

A short description of data set [4]: Leaking of aqueous phase within SUV accompanying fusion (calcein). The conditions noted are these: with fusion, CDMT 50 equivalents. On the procedure:
Accordingly, in this example, by utilizing the property of the compound, a fusion test was performed for liposomes in which (in the inner aqueous phase) calcein has been contained at a high concentration in advance.
The SUV was prepared according to the method described in Example 6. However, the calcein (75 mM) was added to a phosphate buffer (5 mM NaH2PO4/Na2HPO4, 0.15 M NaCl, pH 8), and ultrasonic wave treatment was performed to produce SUVs. The SUVs were separated by gel filter (Sephadex G-50, using the same phosphate buffer solution in the mobile phase) to remove the calcein present in the outside aqueous phase, giving a SUV dispersion.
CDMT (50 equivalents) was added to the obtained SUV dispersion, and allowed to stand at room temperature and the fluorescence (520 nm) was measured (FS) after a given time, and immediately after Triton X-100 (10%, 200 μL) was added to destroy the SUV, and then the fluorescence was measured again (FT). […] The rate of leakage was calculated by the following equation.
[formula] • F0: Fluorescence intensity at 0 hours • FS: Fluorescence intensity at each hour • FT: Fluorescence intensity after adding Triton X-100

Data set [5] can be described thus: Membrane fusion experiment using MLV, change in fluorescence (F value, NBD-PE to Rh-PE energy transfer). The conditions noted are these: for membrane fusion of MLV (in words): from F value over time. From the text:
Examples of means for evaluating and observing a phase transition such as fusion of the membranes include observation by electron microscope, quantification of the produced pseudo-ceramide (for example, by mass spectrometry), and measurement of the change in fluorescence. In the case of measuring changes in fluorescence, a compound which causes a fluorescence energy transfer to another compound that present in the vicinity of the compound is introduced as a component of the bilayer membrane. Examples of such compounds include the combination of 1,2-dimyristyl-sn-glycero-3-phosphoethanolamine-N-(7-nitro-2-1,3-benzoxadiazol-4-yl) (NBD-PE) and 1,2-dimyristyl-sn-glycero-3-phosphoethanolamine-N-(lissamine rhodamine B sulfonyl) (Rh-PE). The former is the energy donor, and the latter is the energy acceptor. […] As for evaluating changes in the fluorescence, it is possible to use the fluorescence change F that is obtained by:
For example, when NBD-PE and Rh-PE are included in separate vesicles, the F value increases by fusion of the vesicles. To the contrary, when a vesicle including both NBD-PE and Rh-PE fuses with a vesicle including neither, the distance between the NBD-PE and Rh-PE increases so that the F value decreases.
First, 1 mL each of the MLV dispersions that contain a tertiary amine (C8 or C16) obtained in Example 1 were mixed at room temperature. A solution of 2-chloro-4,6-dimethoxy-1,3,5-triazin (CDMT) (150 mM or 300 mM) in methanol (21.7 μL) was added thereto, and allowed to stand at room temperature. Next, to the MLV dispersion obtained in Example 2, a solution of 4-(4,6-dimethoxy-1,3,5-triazin-2-yl)-4-methylmorpholium chloride (DMT-MM) (225 mM or 300 mM) in methanol (21.7 μL), which is a water-soluble dehydrating condensing agent, was added to prepare a mixture. As a control experiment, a mixture to which 21.7 μL of methanol was added instead of the CDMT solution was prepared.
The change in fluorescence over time of the prepared mixtures was measured with a fluorometer. The excitation wavelength was 470 nm. As mentioned above, the F value was used as the criterion for the change in fluorescence.

A short description of data set [6]: Change in particle size accompanying MLV fusion (DLS). Conditions: MLV with C8-tertiary amine 0.2 equivalent, CDMT 50 equivalents. On the procedure:
The MLV dispersion prepared was separated into 2 mL portions, and 50 equivalents (21.7 μL) CDMT (300 mM in methanol) was added thereto. For the control, 21.7 μL of methanol was added. Two samples were prepared and the particle size after 12 hours was measured by dynamic light scattering (DLS).

The nature of data set [7]: Fusion experiment between active SUV and inactive SUV (fluorescence dilution). The conditions noted are these: CDMT 35 equivalents; runs 2 and 3, one SUV inactive. On the procedure:
In accordance with the fluorescence dilution method described in Example 8, 0.2 mL of the prepared SUV dispersion with a fluorescent agent and 1.8 mL of the SUV dispersion without a fluorescent agent were mixed at room temperature. […] Then, 15.2 μL (4.55 μmol: 35 equivalents of the total fatty acid salt of run 1) of CDMT (300 mM in methanol) was added thereto, allowed to stand at room temperature, and the change in the F values over time was measured with a fluorometer.

Data set [8] is described as follows: Observation of SUV by transmission electron microscope. Conditions: SUV with sodium laurate and C16-tertiary amine. On the procedure: A SUV dispersion of the composition shown in Table 8 was prepared in accordance with the SUV preparation method described in Example 6.
To 200 μL of the prepared SUV dispersion, 4.3 μL of CDMT (300 mM in methanol) was added, and allowed to stand at room temperature. As a control experiment, 4.3 μL of methanol was added instead of CDMT, and allowed to stand at room temperature. Several drops of the SUV dispersion after standing were placed on a carrier, frozen with liquid nitrogen, and prepared specimens for electron microscopy (replicas) by a freeze fracturing method ordinarily performed by those skilled in the art (JEOL JFD-9010 was used). The specimens obtained were observed by TEM (JEOL JEM-1010) (acceleration voltage 100 kv). The arrows in the micrographs indicate the SUV.

Data set [9] is described as follows: Solubility in the phosphate buffer used in the examples. It is filed as physicochemical. The conditions noted are these: aqueous buffer, buffer 5 mM NaH2PO4, 0.15 M NaCl, pH 7.5, read-out: solubility against the buffer. On the procedure:
The solubility of the dihydric alcohol 1A against the buffer (5 mM NaH2PO4, 0.15 M NaCl, pH 7.5) used in the examples was about 10 mM.
The solubility of the dihydric alcohol 1B against the buffer (5 mM NaH2PO4, 0.15 M NaCl, pH 7.5) used in the examples was about 0.2 mM.

On to `COc1nc(Cl)nc(OC)n1` [CDMT, 2-chloro-4,6-dimethoxy-1,3,5-triazin], for which the “Z average (average diameter)” value in [1] (SUV with lauric acid, 0 hr) was 92.7 nm; in [1] (SUV with lauric acid, 3 hr), 218.7 nm; in data set [1] (SUV with oleic acid, 0 hr), 66.1 nm; in data set [1] (SUV with oleic acid, 3 hr) it was 213.8 nm; in data set [6] (0 hr) it was 235.2 nm and 232.4 nm; in data set [6] (12 hr), 280.3 nm and 278.2 nm. For the same compound, the “number of SUVs fused, from change in particle size” value in data set [1] (laurate SUV) lay within 10 to 20; in [1] (oleate SUV), 30 to 40. For the same compound, the “change in fluorescence, fluorescence dilution method (FIG. 5, in words)” value in data set [2] is “a decrease in the fluorescence was found”. Moreover, the “SUV membrane fusion (F value, FIG. 4, in words)” value in data set [3] is “membrane fusion occurred”. Moreover, the Rate of leakage was 6.5% in data set [4] (1 hr); 7.1% in data set [4] (2 hr); 8% and 8.3% in data set [4] (3 hr). The “Change in fluorescence (F value)” value stood at 1.64 in [5] (CDMT 25 equivalents, C16 tertiary amine in MLV, 2 hr); 8.10 in data set [5] (CDMT 25 equivalents, C16 tertiary amine in MLV, 5 hr); 2.22 in [5] (CDMT 50 equivalents, C8 tertiary amine in MLV, 5 hr); 5.40 in data set [5] (CDMT 50 equivalents, C8 tertiary amine in MLV, 12 hr); 4.41 in data set [5] (CDMT 50 equivalents, C16 tertiary amine in MLV, 2 hr); 10.4 in [5] (CDMT 50 equivalents, C16 tertiary amine in MLV, 5 hr). Also, in data set [5], the “membrane fusion of MLV (in words)” value is on record as “membrane fusion occurs”. In addition, the “change in F value, active/inactive SUV combinations (FIG. 9, in words)” value in [7] is reported as “the F value significantly changes”. In addition, the “particle size by TEM after CDMT addition” value in data set [8] was “greater than 1 μm”.

Regarding `COc1nc(OC)nc([N+]2(C)CCOCC2)n1.[Cl-]` [DMT-MM, 4-(4,6-dimethoxy-1,3,5-triazin-2-yl)-4-methylmorpholium chloride], the “Change in fluorescence (F value)” value is 1.42 in data set [5] (DMT-MM 38 equivalents, MLV without tertiary amine, 36 hr) and 1.64 in [5] (DMT-MM 50 equivalents, MLV without tertiary amine, 36 hr). In data set [5], the “membrane fusion of MLV (in words)” value is reported as “membrane fusion occurred extremely slowly”.

On to `CCCCCCCCNCC(O)CO` (stereo not drawn) [dihydric alcohol 1A, 3-octylamino-1,2-propanediol], for which the solubility in data set [9] was about 10 mM (≈ 2030 µg/mL).

Regarding `CCCCCCCCCCCCNCC(O)CO` (stereo not drawn) [dihydric alcohol 1B, 3-dodecylamino-1,2-propanediol], the solubility in [9] was about 0.2 mM (≈ 51.9 µg/mL).
